In data set [1] the test system is Mus musculus. Description: In vivo receptor occupancy at NET in mouse at 0.3 mg/kg. Format: functional.
In data set [2] the test system is Mus musculus. Briefly: In vivo receptor occupancy at SERT in mouse at 0.3 mg/kg. Format: functional.
The test system of data set [3] is Mus musculus. Description: In vivo receptor occupancy at DAT in mouse at 0.3 mg/kg. In kind it is functional.
Data set [4] has as its system Homo sapiens. Briefly: In vivo receptor occupancy at SERT in human at 3 mg, po administered on day 1 measured on day 14 by [11C]-DASB -based PET imaging analysis. Format: functional.
In data set [5] the test system is Homo sapiens. Description: In vivo receptor occupancy at SERT in human at 0.5 mg, po administered on day 1 measured on day 14 by [11C]-DASB -based PET imaging analysis. In kind it is functional.
For data set [6], the system named is Homo sapiens. Briefly: In vivo receptor occupancy at DAT in human at 3 mg, po administered on day 1 measured on day 14 by […]-based PET imaging analysis. In kind it is functional.
The nature of data set [7]: Tmax in human at 0.025 to 5 mg, po by LC-MS/MS analysis. Format: ADME, organism-based. The note with it: in vivo.
The nature of data set [8]: Half life in human at 0.025 to 5 mg, po by LC-MS/MS analysis. Format: ADME, organism-based. The settings on record: in vivo.
Data set [9] concerns Mus musculus. Description: Antidepressant activity in TST mouse model assessed as reduction in immobility time at 0.3 mg/kg, po relative to control. In kind it is functional.
Data set [10] has as its target T1, Sodium-dependent serotonin transporter (Homo sapiens, UniProt P31645).
Description: Binding affinity to SERT (unknown origin)
The target of data set [11] is T2, Sodium-dependent noradrenaline transporter (Homo sapiens, UniProt P23975).
Description: Binding affinity to NET (unknown origin)
Data set [12] has as its target T3, Sodium-dependent dopamine transporter (Homo sapiens, UniProt Q01959).
Description: Binding affinity to DAT (unknown origin)
The test system of data set [13] is Homo sapiens. Briefly: Anti-obesity activity in human assessed as body weight loss at […], po administered for 6 months relative to control. In kind it is functional.
Data set [14] deals with Homo sapiens. Description: Anti-obesity activity in human assessed as body weight loss at 0.5 mg/kg, po administered for 6 months relative to control. In kind it is functional.
For data set [15], the system named is Homo sapiens. Briefly: Anti-obesity activity in human assessed as body weight loss at 1 mg/kg, po administered for 6 months relative to control. In kind it is functional.
The subject of data set [16] is Homo sapiens. Briefly: In vivo receptor occupancy at DAT in human brain at 0.125 to 0.5 mg, iv via bolus dosing measured at 3 hrs post dose by PET analysis. In kind it is functional.
Data set [17] in a line: Tmax in human at 9 mg. In kind it is ADME, organism-based. The settings on record: in vivo.
Data set [18] concerns Rattus norvegicus. Briefly: In vivo receptor occupancy at SERT in ip dosed rat brain measured 60 mins post dose. In kind it is functional. The note with it: 1 h.
The subject of data set [19] is Rattus norvegicus. Description: In vivo receptor occupancy at NET in ip dosed rat brain measured 60 mins post dose. In kind it is functional. The note with it: 1 h.
Data set [20] concerns Rattus norvegicus. Description: In vivo receptor occupancy at DAT in ip dosed rat brain measured 60 mins post dose. The note with it: 1 h. In kind it is functional.
Data set [21] relates to Mus musculus. Description: Reversal of motor depression in po dosed mouse measured at 3rd, 6th and 23rd hr followed by second administration on 24th hr administered as 4 injections for 4 consecutive days measured from day 3 to 10 days post last dose. Format: functional. The note with it: read-out: MED.
Data set [22] concerns Mus musculus. Description: Reversal of ptosis in po dosed mouse measured at 3rd, 6th and 23rd hr followed by second administration on 24th hr administered as 4 injections for 4 consecutive days measured from day 3 to 10 days post last dose. Format: functional.
Data set [23] has as its target T1, Sodium-dependent serotonin transporter. Description: Inhibition of human SERT expressed in CHO cells assessed as reduction of [3H]-5-HT re-uptake preincubated for 10 mins followed by [3H]-5-HT addition measured after 10 mins by liquid scintillation counting. Format: cell-based.
Data set [24] deals with T2, Sodium-dependent noradrenaline transporter. Briefly: Inhibition of human NET expressed in CHO cells assessed as reduction of [3H]-NE re-uptake preincubated for 10 mins followed by [3H]-NE addition measured after 10 mins by liquid scintillation counting. Format: cell-based.
Data set [25] concerns the target T3, Sodium-dependent dopamine transporter. Briefly: Inhibition of human DAT expressed in CHO cells assessed as reduction of [3H]-DA re-uptake preincubated for 10 mins followed by [3H]-DA addition measured after 10 mins by liquid scintillation counting. In kind it is cell-based.
The nature of data set [26]: Ratio of drug uptake in Sprague-Dawley rat brain to plasma at 1 mg/kg, sc by HPLC analysis. In kind it is ADME, organism-based. The settings on record: read-out: BPR.
The test system of data set [27] is Rattus norvegicus. Briefly: In vivo receptor occupancy at SERT in Sprague-Dawley rat at 0.1 mg/kg, sc measured at 1 to 8 hrs post dose. Format: functional.
The test system of data set [28] is Rattus norvegicus. Briefly: In vivo receptor occupancy at NET in Sprague-Dawley rat at 0.1 mg/kg, sc measured at 1 to 8 hrs post dose. Format: functional.
Data set [29] concerns Rattus norvegicus. Briefly: In vivo receptor occupancy at DAT in Sprague-Dawley rat at 0.1 mg/kg, sc measured at 1 to 8 hrs post dose. In kind it is functional.
Data set [30] addresses T3, Sodium-dependent dopamine transporter. Briefly: Inhibition of DAT (unknown origin) assessed as reduction of [3H]-DA re-uptake.

T3 sequence (Q01959 whole entry): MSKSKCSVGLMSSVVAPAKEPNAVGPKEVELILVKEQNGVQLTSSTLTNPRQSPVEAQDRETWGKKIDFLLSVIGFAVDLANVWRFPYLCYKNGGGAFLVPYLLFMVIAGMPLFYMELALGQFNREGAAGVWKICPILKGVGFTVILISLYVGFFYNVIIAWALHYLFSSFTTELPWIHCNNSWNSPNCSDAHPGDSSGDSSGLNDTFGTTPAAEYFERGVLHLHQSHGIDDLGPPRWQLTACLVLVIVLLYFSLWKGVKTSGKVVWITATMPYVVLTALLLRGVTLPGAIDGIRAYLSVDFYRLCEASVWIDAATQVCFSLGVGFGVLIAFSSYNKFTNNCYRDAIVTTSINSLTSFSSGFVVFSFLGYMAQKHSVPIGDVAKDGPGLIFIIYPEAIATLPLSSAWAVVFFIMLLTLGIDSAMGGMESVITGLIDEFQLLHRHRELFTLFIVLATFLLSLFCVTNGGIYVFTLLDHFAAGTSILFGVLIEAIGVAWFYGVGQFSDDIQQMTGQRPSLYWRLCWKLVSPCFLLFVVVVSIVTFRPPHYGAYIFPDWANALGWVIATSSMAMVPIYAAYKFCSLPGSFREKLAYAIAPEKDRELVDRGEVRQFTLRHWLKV
T1 sequence (P31645 whole entry): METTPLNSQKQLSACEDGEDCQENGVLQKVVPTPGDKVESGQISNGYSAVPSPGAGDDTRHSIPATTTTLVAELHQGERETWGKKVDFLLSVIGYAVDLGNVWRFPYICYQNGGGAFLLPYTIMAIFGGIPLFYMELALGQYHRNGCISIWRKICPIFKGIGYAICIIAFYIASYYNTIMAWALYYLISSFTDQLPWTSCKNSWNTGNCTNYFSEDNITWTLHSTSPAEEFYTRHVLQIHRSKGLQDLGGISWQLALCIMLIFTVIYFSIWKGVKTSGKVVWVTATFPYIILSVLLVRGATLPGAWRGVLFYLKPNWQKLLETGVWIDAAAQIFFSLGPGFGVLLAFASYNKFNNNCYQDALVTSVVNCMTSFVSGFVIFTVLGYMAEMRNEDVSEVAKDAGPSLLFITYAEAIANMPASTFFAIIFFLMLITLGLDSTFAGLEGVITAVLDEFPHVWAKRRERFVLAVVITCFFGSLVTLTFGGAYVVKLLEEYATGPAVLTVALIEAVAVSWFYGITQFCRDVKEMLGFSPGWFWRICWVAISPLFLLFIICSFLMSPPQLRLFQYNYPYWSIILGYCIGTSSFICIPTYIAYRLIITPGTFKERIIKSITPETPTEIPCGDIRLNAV
T2 sequence (P23975 whole entry): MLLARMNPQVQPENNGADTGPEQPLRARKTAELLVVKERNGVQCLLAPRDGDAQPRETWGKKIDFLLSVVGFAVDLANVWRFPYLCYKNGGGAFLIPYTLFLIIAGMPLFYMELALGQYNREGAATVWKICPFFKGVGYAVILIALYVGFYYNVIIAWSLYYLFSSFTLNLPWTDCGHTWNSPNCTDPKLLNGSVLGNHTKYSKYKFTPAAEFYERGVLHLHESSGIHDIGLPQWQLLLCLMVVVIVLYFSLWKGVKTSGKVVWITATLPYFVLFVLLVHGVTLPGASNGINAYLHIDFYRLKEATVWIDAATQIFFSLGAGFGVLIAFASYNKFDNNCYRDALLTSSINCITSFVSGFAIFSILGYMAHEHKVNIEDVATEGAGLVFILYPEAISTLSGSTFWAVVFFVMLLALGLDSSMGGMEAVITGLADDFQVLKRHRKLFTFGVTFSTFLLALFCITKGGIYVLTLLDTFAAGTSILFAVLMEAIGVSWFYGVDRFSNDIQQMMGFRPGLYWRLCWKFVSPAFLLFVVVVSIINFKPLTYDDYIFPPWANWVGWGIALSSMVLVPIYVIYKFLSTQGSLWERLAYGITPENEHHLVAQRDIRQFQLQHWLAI

The Tmax is the time at which the peak concentration occurs. One may read the half-life as how long it takes for the measured level to halve. High values mean slow loss, low ones fast loss. Usually inhibition in vivo stands for the share of the control response that was lost under treatment. The term IC50 denotes the concentration at which inhibition is half-maximal. Regarding `CN1Cc2cc(-c3ccc(N)nn3)ccc2[C@H](c2ccc3ccccc3c2)C1` [LIAFENSINE], the Occ with Mus musculus [1] turned out to be 76%; with Mus musculus [2], 86%; in the data set on Mus musculus [3], 28%; in the data set with Homo sapiens [4] it was 82%; with Homo sapiens [5], 19%; in the data set on Homo sapiens [6], 19%. In data set [7], the Tmax was 5 to 7.2 h. Further, the half-life in [8] lay in the range of 34 to 57 h. In the data set with Mus musculus [9], the inhibition in vivo at 0.3 mg/kg amounted to 77%. Moreover, the figures for the half-maximal inhibitory concentration (IC50) in data set [10] and in data set [11] were 1.1 nM and 8.8 nM, respectively.
As to `CCOC[C@H]1[C@@H](c2ccc(Cl)c(Cl)c2)C[C@@H]2CC[C@H]1N2C`, the results for the IC50 in data set [12], in [10] and in data set [11] were 8 nM, 11 nM and 3.2 nM, respectively. Further, the Activity was 4.5% with Homo sapiens [13], 9.2% with Homo sapiens [14] and 10.6% in the data set on Homo sapiens [15]. Moreover, in the data set with Homo sapiens [16], the Occ was 18 - 77%. Also, the Tmax in [17] was found to be 6 h.
In general, ED50 refers to the dose at which the effect has come halfway, by size or by number of responders. As to `Clc1ccc([C@]23CNC[C@H]2C3)cc1Cl` [AMITIFADINE], the ED50 came out at 3 mg/kg with Rattus norvegicus [18], 19 mg/kg in the data set with Rattus norvegicus [19], 95 mg/kg with Rattus norvegicus [20] and 2.2 mg/kg in the data set on Mus musculus [22]. The minimal effective dose in the data set with Mus musculus [21] was 1.6 mg/kg.
Take `CN(C)CC(c1ccc(OC(=O)c2ccccc2)cc1)C1(O)CCCCC1` (stereo not given): the IC50 turned out to be 105 nM in data set [23], 644 nM in data set [24] and 813 nM in data set [25].
One may read the Ki as the dissociation constant of the complex between target and ligand, obtained from inhibition or displacement. For the molecule `C#Cc1ccc(C2CN3CCCC3c3ccccc32)cc1` (racemic), the results for the Ki in data set [12], in data set [10] and in data set [11] were 5.2 nM, 0.9 nM and 16.6 nM, respectively. Also, the Kp in data set [26] was found to be 7.5. For the same molecule, the Occ was determined as 94% in the data set on Rattus norvegicus [27], 95% in the data set on Rattus norvegicus [28] and 50% in the data set with Rattus norvegicus [29].
As for `CNC[C@H]1C2CCC(C2)[C@@H]1c1ccc2ccccc2c1` (stereo not given in full), the IC50 in data set [30] was found to be 96 nM.
